Data reported in US11840528B2 (Hoffmann-La Roche Inc., priority 2018, dated 2023).
pKi: −log10 of the molar value.

Legend:
[1] = biological target: T1, h-GABA-A α5β3γ2 (Homo sapiens, UniProt P18507+P31644); assay: [3H]flumazenil competition binding assay, membranes of HEK293 cells expressing GABAA receptors; conditions: displacement of [3H]-Flumazenil 0.5 nM, HEK293 cells expressing human receptors, mean of two determinations; Table 1
Protocol: The affinity of compounds at GABAA receptor subtypes was measured by competition for [3H]flumazenil (85 Ci/mmol; Roche) binding to HEK293 cells expressing rat (stably transfected) or human (transiently transfected) receptors of composition α1β3γ2, α2β3γ2, α3β3γ2 and α5β3γ2.
Cell pellets were suspended in Krebs-tris buffer (4.8 mM KCl, 1.2 mM CaCl2), 1.2 mM MgCl2, 120 mM NaCl, 15 mM Tris; pH 7.5; binding assay buffer), homogenized by polytron for ca. 20 sec on ice and centrifuged for 60 min at 4° C. (50000 g; Sorvall, rotor: SM24=20000 rpm). The cell pellets were resuspended in Krebs-tris buffer and homogenized by polytron for ca. 15 sec on ice. Protein was measured (Bradford method, Bio-Rad) and aliquots of 1 mL were prepared and stored at −80° C.
Assays were incubated to equilibrium for 1 hour at 4° C. and harvested onto GF/C uni-filters (Packard) by filtration using a Packard harvester and washing with ice-cold wash buffer (50 mM Tris; pH 7.5). After drying, filter-retained radioactivity was detected by liquid scintillation counting. Ki values were calculated using Excel-Fit (Microsoft) and are the means of two determinations.

[2] = biological target: T1, h-GABA-A α5β3γ2; assay: Two-electrode voltage clamp electrophysiology in Xenopus laevis oocytes expressing GABAA receptors, modulation of GABA EC20 current; type: cell-based; set-up: host or cells: Xenopus laevis oocytes micro-injected with RNA transcripts of the subunits
Protocol: Xenopus laevis oocytes at maturation stages V-VI were used for the expression of cloned mRNA encoding GABAA receptor subunits. Oocytes ready for RNA micro-injection were bought from Ecocyte, Castrop-Rauxel, Germany and stored in modified Barth's medium (composition in mM: NaCl 88, KCl 1, NaHCO32.4, HEPES 10, MgSO4 0.82, CaNO3 0.33, CaCl2 0.33, pH=7.5) at 20° C. until the experiment.
Oocytes were plated in 96-well plates to be used in an automated instrument (Robo-ocyte, MultiChannelSystems, Reutlingen, Germany) for microinjection and electrophysiological recordings. Approximately 50 nl of an aqueous solution containing the RNA transcripts for the subunits of the desired GABAA receptor was injected into each oocyte. RNA concentrations ranged between 0.3 and 16 ng/μl/subunit and were adjusted in pilot experiments to obtain GABA responses of a suitable size and a maximal effect of the reference modulator, Beta-CCM (β-CCM), a betacarboline negative allosteric modulator (NAM) at the GABAA receptor benzodiazepine (BZD) binding site or Midazolam, a benzodiazepine positive allosteric modulator (PAM) at the GABAA receptor benzodiazepine (BZD) binding site. The concentration of the γ2 subunit encoding RNA usually was 5- to 10-fold higher than the RNAs encoding the other subunits. Oocytes were kept in modified Barth's medium (composition in mM: NaCl 88, KCl 1, NaHCO3 4, HEPES 10, MgSO4 0.82, CaNO3 0.33, CaCl2) 0.33, pH=7.5) at 20° C. until the experiment.
Electrophysiological experiments were performed on days 3 to 5 after the micro-injection of mRNA. During the experiment the oocytes were constantly superfused by a solution containing (in mM) NaCl 90, KCl 1, HEPES 5, MgCl2 1, CaCl2) 1 (pH 7.4). Oocytes were impaled by two glass microelectrodes (resistance: 0.4 MΩ) which were filled with a solution containing KCl 1M+K-acetate 1.5 M and voltage-clamped to −80 mV. The recordings were performed at room temperature using the Roboocyte two-electrode voltage clamp system (Multichannelsystem). After an initial equilibration period of 1.5 min GABA was added for 1.5 min at a concentration evoking approximately 20% of a maximal current response (EC20). After another rest interval of 2.5 min GABA was again added evoking a response of similar amplitude and shape. 0.5 min after the onset of this second GABA application the test compound, at a concentration corresponding to approximatively 30 fold its Ki, was added while GABA was still present. Current traces were recorded at a digitization rate of 10 Hz during and shortly before and after the GABA application.
Each compound and concentration was tested on at least 3 oocytes. Different oocytes were used for different compound concentrations. β-CCM, a negative allosteric modulator, or Midazolam, a positive allosteric modulators, were tested on a few (3-6) oocytes on each 96-well plate for a positive control at a maximally effective. β-CCM inhibited the GABA-evoked current by approximatively 50% (Fold increase ˜0.5), while Midazolam potentiated the GABA-induced current by approximatively 150% (Fold increase ˜2.5).
For the analysis, the digitized current traces of the first and second GABA response were superimposed and, if necessary, rescaled to equal maximal amplitudes. The ratio between the two responses during the time interval of test compound application was calculated point by point. The extremum of the resulting “ratio trace” was taken as the efficacy (“Fold increase”) of the compound expressed as “% modulation of GABA EC20” (100*(Fold increase-1)).

[3] = % modulation of GABA EC20 = 100*(Fold increase-1), Table 1
[4] = test compound at approx. 30 fold its Ki, GABA at EC20, Table 1
[5] = positive control at a maximally effective concentration, 3-6 oocytes per plate

Structure (SMILES)	pKi [1]	Efficacy (GABA) % [2, 3] [%]	Fold increase h-GABA-A α5β3γ2 oocyte [2, 4]	Fold increase [2, 5]	potentiation of the GABA-induced current [2, 5] [%]	Efficacy (GABA) % ([2]; reference compounds, % modulation of GABA EC20, Table 2) [%]	Fold increase h-GABA-A α5β3γ2 oocyte ([2]; reference compounds, Table 2)	inhibition of the GABA-evoked current [2, 5] [%]
Cc1ccc(-c2noc(C)c2Cn2ncc(N3C[C@H](C)O[C@@H](C)C3)cc2=O)cn1 (single isomer, unassigned) [Example 29, 5-[(2S,6S)-2,6-dimethylmorpholin-4-yl]-2-[[5-methyl-3-(6-methyl-3-pyridyl)isoxazol-4-yl]methyl]pyridazin-3-one or enantiomer]	8.85	228	3.28	–	–	–	–	–
Cc1ccc(-c2noc(C)c2Cn2ncc(N3C[C@@H](C)O[C@H](C)C3)cc2=O)cn1 (single isomer, unassigned) [Example 30, 5-[(2R,6R)-2,6-dimethylmorpholin-4-yl]-2-[[5-methyl-3-(6-methyl-3-pyridyl)isoxazol-4-yl]methyl]pyridazin-3-one or enantiomer]	9.30	216	3.16	–	–	–	–	–
Cc1ccc(-c2noc(C)c2Cn2ncc(N3CC4(CC(C)CO4)C3)cc2=O)nn1 (single isomer, unassigned) [Example 240, 2-[[5-methyl-3-(6-methylpyridazin-3-yl)isoxazol-4-yl]methyl]-5-[(7R)-7-methyl-5-oxa-2-azaspiro[3.4]octan-2-yl]pyridazin-3-one or enantiomer]	8.24	94	1.94	–	–	–	–	–
Cc1ccc(-c2noc(C)c2Cn2ncc(N3CC4(CC(C)CO4)C3)cc2=O)nn1 (single isomer, unassigned) [Example 241, 2-[[5-methyl-3-(6-methylpyridazin-3-yl)isoxazol-4-yl]methyl]-5-[(7S)-7-methyl-5-oxa-2-azaspiro[3.4]octan-2-yl]pyridazin-3-one or enantiomer]	8.27	80	1.8	–	–	–	–	–
Cc1onc(-c2ccc(Cl)nc2)c1Cn1ncc(N2CC(OC(C)C(F)(F)F)C2)cc1=O (single isomer, unassigned) [Example 265]	7.59	155	2.55	–	–	–	–	–
Cc1onc(-c2ccc(Cl)nc2)c1Cn1ncc(N2CC(OC(C)C(F)(F)F)C2)cc1=O (single isomer, unassigned) [Example 266]	7.45	136	2.36	–	–	–	–	–
Cc1ccc(-c2noc(C)c2Cn2ncc(N3CC4(CC(F)CCO4)C3)cc2=O)cn1 (single isomer, unassigned) [Example 273]	7.52	126	2.26	–	–	–	–	–
Cc1ccc(-c2noc(C)c2Cn2ncc(N3CC4(CC(F)CCO4)C3)cc2=O)cn1 (single isomer, unassigned) [Example 274]	7.80	110	2.1	–	–	–	–	–
Cc1ccc(-c2noc(C)c2Cn2ncc(N3CC4(CCC(F)CO4)C3)cc2=O)cn1 (single isomer, unassigned) [Example 275]	8.34	89	1.89	–	–	–	–	–
Cc1ccc(-c2noc(C)c2Cn2ncc(N3CC4(CCC(F)CO4)C3)cc2=O)cn1 (single isomer, unassigned) [Example 276]	7.44	102	2.02	–	–	–	–	–
Cc1ccc(-c2noc(C)c2Cn2ncc(N3CC4(CC(F)CCO4)C3)cc2=O)nn1 (single isomer, unassigned) [Example 287]	8.42	77	1.77	–	–	–	–	–
Cc1ccc(-c2noc(C)c2Cn2ncc(N3CC4(CCC(F)CO4)C3)cc2=O)nn1 (single isomer, unassigned) [Example 288]	8.49	63	1.63	–	–	–	–	–
Cc1onc(-c2ccc(Cl)nc2)c1Cn1ncc(N2CC3(CC(F)CCO3)C2)cc1=O (single isomer, unassigned) [Example 296, (R or S)-2-((3-(6-chloropyridin-3-yl)-5-methylisoxazol-4-yl)methyl)-5-(8-fluoro-5-oxa-2-azaspiro[3.5]nonan-2-yl)pyridazin-3(2H)-one]	7.56	84	1.84	–	–	–	–	–
Cc1onc(-c2ccc(Cl)nc2)c1Cn1ncc(N2CC3(CCC(F)CO3)C2)cc1=O (single isomer, unassigned) [Example 297]	7.97	130	2.3	–	–	–	–	–
Cc1onc(-c2ccc(Cl)nc2)c1Cn1ncc(N2CC3(CCC(F)CO3)C2)cc1=O (single isomer, unassigned) [Example 298]	7.60	116	2.16	–	–	–	–	–
Cc1ccc(-c2noc(C)c2Cn2ncc(N3CC4(CC(C(F)(F)F)CCO4)C3)cc2=O)nn1 (single isomer, unassigned) [Example 311]	8.62	88	1.88	–	–	–	–	–
Cc1ccc(-c2noc(C)c2Cn2ncc(N3CC4(CC(C(F)(F)F)CCO4)C3)cc2=O)nn1 (single isomer, unassigned) [Example 312]	8.19	127	2.27	–	–	–	–	–
Cc1ccc(-c2noc(C)c2Cn2ncc(N3CC4(CCC(C)CO4)C3)cc2=O)nn1 (single isomer, unassigned) [Example 313]	8.10	103	2.03	–	–	–	–	–
Cc1ccc(-c2noc(C)c2Cn2ncc(N3CC4(CC(C)CCO4)C3)cc2=O)nn1 (single isomer, unassigned) [Example 317]	8.31	68	1.68	–	–	–	–	–
Cc1ccc(-c2noc(C)c2Cn2ncc(N3CC4(CC(C)CCO4)C3)cc2=O)nn1 (single isomer, unassigned) [Example 318]	8.25	111	2.11	–	–	–	–	–
Cc1ccc(-c2noc(C)c2Cn2ncc(N3CC4(CCC(F)CO4)C3)cc2=O)nn1 (single isomer, unassigned) [Example 319]	9.00	91	1.91	–	–	–	–	–
Cc1ncc2n1-c1ccc(Cl)cc1C(c1ccccc1F)=NC2 [Midazolam, reference compound]	–	–	–	~2.5	~150	–	–	–
Cc1onc(-c2ccc(Cl)cn2)c1COc1ccc(C(=O)N2CCOCC2)cn1 [RO-309, reference compound]	–	–	–	–	–	−17	0.83	–
COC(=O)c1cc2c(cn1)[nH]c1ccccc12 [β-CCM, reference compound]	–	–	–	~0.5	–	–	–	~50
